Measurements published in ChEMBL document CHEMBL1212921, “Design, synthesis, enzyme-inhibitory activity, and effect on human cancer cells of a novel series of jumonji domain-containing protein 2 histone demethylase inhibitors” (J Med Chem, 2010).
Activity calls are given as the source filed them. The rule behind the calls is not given here.

What was measured:
[1] = target: T1, Lysine-specific demethylase 4C (Homo sapiens, UniProt Q9H3R0); test: Inhibition of recombinant His-tagged JMJD2C expressed in Escherichia coli Rosetta 2 (DE3) pLysS cells by formaldehyde dehydrogenase-coupled assay
T1 sequence (Q9H3R0 whole entry): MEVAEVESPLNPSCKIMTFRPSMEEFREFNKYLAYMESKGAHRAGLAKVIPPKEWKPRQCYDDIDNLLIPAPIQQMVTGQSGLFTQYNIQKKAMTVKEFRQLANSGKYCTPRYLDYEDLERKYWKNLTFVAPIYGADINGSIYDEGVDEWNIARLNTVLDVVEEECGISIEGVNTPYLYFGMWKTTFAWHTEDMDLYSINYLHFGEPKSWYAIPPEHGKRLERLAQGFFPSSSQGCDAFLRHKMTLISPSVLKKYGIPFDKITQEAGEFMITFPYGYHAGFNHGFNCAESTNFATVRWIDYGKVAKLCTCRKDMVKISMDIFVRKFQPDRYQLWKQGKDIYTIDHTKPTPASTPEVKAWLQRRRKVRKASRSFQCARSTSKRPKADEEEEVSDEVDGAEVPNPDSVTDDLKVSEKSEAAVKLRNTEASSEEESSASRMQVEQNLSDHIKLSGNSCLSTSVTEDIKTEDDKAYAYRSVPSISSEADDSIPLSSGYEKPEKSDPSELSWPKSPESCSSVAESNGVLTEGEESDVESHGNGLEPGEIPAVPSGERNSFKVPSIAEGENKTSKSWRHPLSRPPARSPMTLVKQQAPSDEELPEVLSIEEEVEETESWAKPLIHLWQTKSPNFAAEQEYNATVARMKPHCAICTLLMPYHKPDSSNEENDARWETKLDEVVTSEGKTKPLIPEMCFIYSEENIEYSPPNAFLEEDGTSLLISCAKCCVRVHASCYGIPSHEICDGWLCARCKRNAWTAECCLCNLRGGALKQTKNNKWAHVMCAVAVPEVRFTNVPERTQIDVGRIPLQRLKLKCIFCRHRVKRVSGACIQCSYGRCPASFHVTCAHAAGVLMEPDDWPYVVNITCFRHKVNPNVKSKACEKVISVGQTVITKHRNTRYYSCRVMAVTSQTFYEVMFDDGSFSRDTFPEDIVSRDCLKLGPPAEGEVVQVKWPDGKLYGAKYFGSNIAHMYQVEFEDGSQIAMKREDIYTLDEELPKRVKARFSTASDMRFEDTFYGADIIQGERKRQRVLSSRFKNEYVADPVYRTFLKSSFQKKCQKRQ

[2] = target: T2, Lysine-specific demethylase 4A (Homo sapiens, UniProt O75164); test: Inhibition of recombinant His-tagged JMJD2A expressed in Escherichia coli Rosetta 2 (DE3) pLysS cells by formaldehyde dehydrogenase-coupled assay
T2 sequence (O75164 whole entry): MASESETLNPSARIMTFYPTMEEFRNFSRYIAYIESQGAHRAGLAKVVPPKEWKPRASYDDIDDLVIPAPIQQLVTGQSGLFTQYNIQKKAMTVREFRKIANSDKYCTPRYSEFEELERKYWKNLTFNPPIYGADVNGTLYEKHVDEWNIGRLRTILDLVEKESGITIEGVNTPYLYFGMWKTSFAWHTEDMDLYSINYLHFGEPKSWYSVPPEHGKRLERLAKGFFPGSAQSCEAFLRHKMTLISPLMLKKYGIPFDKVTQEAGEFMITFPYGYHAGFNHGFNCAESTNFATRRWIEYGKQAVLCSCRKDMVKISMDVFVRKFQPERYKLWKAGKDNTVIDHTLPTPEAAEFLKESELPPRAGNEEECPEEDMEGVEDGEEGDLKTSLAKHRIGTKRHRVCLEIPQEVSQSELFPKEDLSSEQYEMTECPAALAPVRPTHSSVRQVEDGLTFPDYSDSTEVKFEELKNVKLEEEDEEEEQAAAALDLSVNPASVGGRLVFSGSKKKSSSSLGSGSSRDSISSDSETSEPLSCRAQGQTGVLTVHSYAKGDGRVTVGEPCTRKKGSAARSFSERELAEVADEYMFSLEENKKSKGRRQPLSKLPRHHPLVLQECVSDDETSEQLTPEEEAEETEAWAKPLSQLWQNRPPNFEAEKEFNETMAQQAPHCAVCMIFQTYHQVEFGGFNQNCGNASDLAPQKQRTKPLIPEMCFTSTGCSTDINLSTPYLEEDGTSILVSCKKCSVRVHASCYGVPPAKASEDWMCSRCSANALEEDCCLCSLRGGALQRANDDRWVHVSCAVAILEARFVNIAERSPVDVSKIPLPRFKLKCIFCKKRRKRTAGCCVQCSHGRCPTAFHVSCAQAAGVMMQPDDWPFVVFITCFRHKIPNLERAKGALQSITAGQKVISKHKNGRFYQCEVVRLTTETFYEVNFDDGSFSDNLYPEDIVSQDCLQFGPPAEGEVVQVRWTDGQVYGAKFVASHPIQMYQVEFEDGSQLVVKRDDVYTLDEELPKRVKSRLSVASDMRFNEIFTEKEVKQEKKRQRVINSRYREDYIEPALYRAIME

Prolyl hydroxylase EGLN2 = Prolyl hydroxylase EGLN2 (Homo sapiens, UniProt Q96KS0); test: Inhibition of human recombinant PHD1 expressed in Sf9 cells by time-resolved fluorescence assay
Egl nine homolog 1 = Egl nine homolog 1 (Homo sapiens, UniProt Q9GZT9); test: Inhibition of human recombinant PHD2 expressed in Sf9 cells by time-resolved fluorescence assay
LNCaP [3] = test: Cytotoxicity against human LNCAP cells expressing JMJD2C at 30 uM after 72 hrs by Alamar blue assay; type: functional, cell-based
LNCaP [4] = test: Cytotoxicity against human LNCAP cells expressing JMJD2C at 100 uM after 72 hrs by Alamar blue assay; type: functional, cell-based
PC-3 = test: Cytotoxicity against human PC3 cells at 30 uM after 72 hrs by Alamar blue assay; type: functional, cell-based
HCT-116 = test: Cytotoxicity against human HCT116 cells at 30 uM after 72 hrs by Alamar blue assay; type: functional, cell-based
KYSE-150 = test: Cytotoxicity against human KYSE-150 cells at 30 uM after 72 hrs by Alamar blue assay; type: functional, cell-based
LNCaP [5] = test: Cytotoxicity against human LNCAP cells expressing JMJD2C after 72 hrs by Alamar blue assay; type: functional

Chain of Prolyl hydroxylase EGLN2 (Q96KS0 whole entry): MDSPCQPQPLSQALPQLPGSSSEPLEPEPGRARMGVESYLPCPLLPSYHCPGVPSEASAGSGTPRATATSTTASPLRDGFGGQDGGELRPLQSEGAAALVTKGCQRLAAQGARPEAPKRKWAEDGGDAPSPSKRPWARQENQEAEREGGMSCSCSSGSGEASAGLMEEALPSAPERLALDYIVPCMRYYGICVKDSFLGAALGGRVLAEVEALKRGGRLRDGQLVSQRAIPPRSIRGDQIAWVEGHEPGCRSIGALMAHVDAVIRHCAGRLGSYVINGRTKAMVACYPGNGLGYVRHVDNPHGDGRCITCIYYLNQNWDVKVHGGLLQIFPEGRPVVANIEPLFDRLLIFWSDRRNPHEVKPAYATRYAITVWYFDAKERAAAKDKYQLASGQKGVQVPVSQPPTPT
Chain of Egl nine homolog 1 (Q9GZT9 whole entry): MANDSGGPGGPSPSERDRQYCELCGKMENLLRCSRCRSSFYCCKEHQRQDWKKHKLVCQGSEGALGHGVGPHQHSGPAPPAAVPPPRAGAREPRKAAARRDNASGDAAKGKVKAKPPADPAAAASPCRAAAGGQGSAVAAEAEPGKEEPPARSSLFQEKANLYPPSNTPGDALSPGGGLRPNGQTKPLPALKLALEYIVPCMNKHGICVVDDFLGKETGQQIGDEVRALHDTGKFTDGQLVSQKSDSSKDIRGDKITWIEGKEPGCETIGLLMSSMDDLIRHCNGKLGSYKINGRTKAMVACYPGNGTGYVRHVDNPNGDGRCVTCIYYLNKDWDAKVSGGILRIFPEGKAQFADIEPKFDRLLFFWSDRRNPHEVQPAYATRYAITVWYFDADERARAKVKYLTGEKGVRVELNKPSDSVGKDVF

Compound	IC50 [1] [µM]	IC50 [2] [µM]	IC50 (Prolyl hydroxylase EGLN2; read-out: IC50) [µM]	IC50 (Egl nine homolog 1) [µM]	also measured
O=C(O)CNC(=O)C(=O)O [N-OXALYLGLYCINE]	500	250	2.1		
CN(C)CCCCCC(=O)N(O)CCC(=O)O	10	17			
CNCCCCCCCCC(=O)N(O)CCC(=O)O	1.7	4.4			
CN(C)CCCCCCCC(=O)N(O)CCC(=O)O	1.5	6	> 100	> 100	
CCCCN(C)CCCCCCCCC(=O)N(O)CCC(=O)O		3.2	> 100	> 100	
CN(C)CCCCCCCCCCCC(=O)N(O)CCC(=O)O	8.8	22			
CN(C)CCCCCCCCC(=O)N(O)CCC(=O)O	1	3	> 100	> 100	Activity (LNCaP [3]): inactive; Activity (LNCaP [4]): inactive
CN(CCCCCCCCC(=O)N(O)CCC(=O)O)Cc1ccccc1	1.3	2			
O=C(O)c1ccnc(C(=O)O)c1					IC50 (Prolyl hydroxylase EGLN2): 1.5 µM
CN(C)CCCCCCCCCC(=O)N(O)CCC(=O)O	1.6	5.5	> 100	> 100	
COC(=O)CCN(O)C(=O)CCCCCCCCN(C)C					Activity (LNCaP [3]): inactive; Activity (PC-3): inactive; Activity (HCT-116): inactive; Activity (LNCaP [4]): inactive; Activity (KYSE-150): inactive
N[C@@H]1C[C@H]1c1ccc(OCC[C@H](NC(=O)c2ccccc2)C(=O)NCc2ccccc2)cc1					GI50 (LNCaP [5]): 36 µM
CC(C)CCCCCC(=O)N(O)CCC(=O)O	74	120			
COC(=O)c1ccnc(C(=O)OC)c1					Activity (LNCaP [3]): inactive; Activity (PC-3): inactive; Activity (HCT-116): inactive; Activity (LNCaP [4]): inactive
CN(C)CCCCCCC(=O)N(O)CCC(=O)O	2.7	8.7			
CC(=O)N(O)CCC(=O)O	34	14	> 100	> 100	
CN(C)CCCCCCCCCCC(=O)N(O)CCC(=O)O	5.2	11			
CN(C)CCCCCCCCN(O)C(=O)CCC(=O)O	2	8.1	> 100	> 100	
